33 compounds from ChEMBL document CHEMBL1649292, “In vivo investigations of selected diamidine compounds against Trypanosoma evansi using a mouse model” (2009) can be followed below.

Activity calls are given as the source filed them. No cut-off for these calls is given here.

In assay [1] the test system is Trypanosoma evansi. As to the kind of experiment: Antimicrobial activity against Trypanosoma evansi STIB 806K infected in NMRI mouse assessed as host survival days at 0.5 mg/kg, ip administered 3 to 6 days after infection for 4 consecutive days. It counts as functional. The note with it: route intraperitoneal.
For assay [2], the system named is Trypanosoma evansi. As to the kind of experiment: Antimicrobial activity against Trypanosoma evansi STIB 806K infected in NMRI mouse assessed as complete cure from microbial infection at 0.5 mg/kg, ip administered 3 to 6 days after infection for 4 consecutive days. Set-up: dose 0.5 mg/kg. Type of assay: functional, organism-based.
Assay [3] relates to Trypanosoma evansi. As to the kind of experiment: Antimicrobial activity against Trypanosoma evansi STIB 806K infected in NMRI mouse assessed as host survival days at 2 mg/kg, ip administered 3 to 6 days after infection for 4 consecutive days. Type of assay: functional. The note with it: route intraperitoneal.
Assay [4] has as its system Trypanosoma evansi. As to the kind of experiment: Antimicrobial activity against Trypanosoma evansi STIB 806K infected in NMRI mouse assessed as complete cure from microbial infection at 2 mg/kg, ip administered 3 to 6 days after infection for 4 consecutive days. Type of assay: functional, organism-based. Set-up: dose 2 mg/kg.
Assay [5] deals with Trypanosoma evansi. As to the kind of experiment: Antimicrobial activity against Trypanosoma evansi STIB 806K infected in NMRI mouse assessed as complete cure from microbial infection at 1 mg/kg, ip administered 3 to 6 days after infection for 4 consecutive days. Also noted: dose 1 mg/kg. It counts as functional, organism-based.
For assay [6], the system named is Trypanosoma evansi. As to the kind of experiment: Antimicrobial activity against Trypanosoma evansi STIB 806K infected in NMRI mouse assessed as host survival days at 0.25 mg/kg, ip administered 3 to 6 days after infection for 4 consecutive days. It counts as functional. The note with it: route intraperitoneal.
Assay [7] relates to Trypanosoma evansi. The experiment in a line: Antimicrobial activity against Trypanosoma evansi STIB 806K infected in NMRI mouse assessed as host survival days at 1 mg/kg, ip administered 3 to 6 days after infection for 4 consecutive days. Type of assay: functional. The following applies: route intraperitoneal.
The test system of assay [8] is Trypanosoma evansi. As to the kind of experiment: Antimicrobial activity against Trypanosoma evansi STIB 806K infected in NMRI mouse assessed as complete cure from microbial infection at 0.25 mg/kg, ip administered 3 to 6 days after infection for 4 consecutive days. Type of assay: functional, organism-based. Also noted: dose 0.25 mg/kg.
In assay [9] the test system is Trypanosoma evansi. As to the kind of experiment: Antimicrobial activity against Trypanosoma evansi STIB 806K infected in NMRI mouse assessed as host survival days at 0.20 mg/kg, ip administered 3 to 6 days after infection for 4 consecutive days. It counts as functional. The note with it: dose 0.2 mg/kg; route intraperitoneal.
Assay [10] concerns Trypanosoma evansi. As to the kind of experiment: Antimicrobial activity against Trypanosoma evansi STIB 806K infected in NMRI mouse assessed as host survival days at 0.125 mg/kg, ip administered 3 to 6 days after infection for 4 consecutive days. It counts as functional. The following applies: route intraperitoneal.
Assay [11] deals with Trypanosoma evansi. The experiment in a line: Antimicrobial activity against Trypanosoma evansi STIB 806K infected in NMRI mouse assessed as host survival days at 0.0625 mg/kg, ip administered 3 to 6 days after infection for 4 consecutive days. It counts as functional. The note with it: route intraperitoneal.
Assay [12] deals with Trypanosoma evansi. The experiment in a line: Antimicrobial activity against Trypanosoma evansi STIB 806K infected in NMRI mouse assessed as complete cure from microbial infection at 0.20 mg/kg, ip administered 3 to 6 days after infection for 4 consecutive days. Also noted: dose 0.2 mg/kg. It counts as functional, organism-based.
In assay [13] the test system is Trypanosoma evansi. As to the kind of experiment: Antimicrobial activity against Trypanosoma evansi STIB 806K infected in NMRI mouse assessed as host survival days at 0.2 mg/kg, ip administered 3 to 6 days after infection for 4 consecutive days. The note with it: route intraperitoneal. Type of assay: functional.
In assay [14] the test system is Trypanosoma evansi. As to the kind of experiment: Antimicrobial activity against Trypanosoma evansi STIB 806K infected in NMRI mouse assessed as complete cure from microbial infection at 0.2 mg/kg, ip administered 3 to 6 days after infection for 4 consecutive days. Type of assay: functional, organism-based. Set-up: dose 0.2 mg/kg.
Assay [15] relates to Trypanosoma evansi. The experiment in a line: Antimicrobial activity against Trypanosoma evansi STIB 806K infected in NMRI mouse assessed as complete cure from microbial infection at 0.0625 mg/kg, ip administered 3 to 6 days after infection for 4 consecutive days. It counts as functional, organism-based. Set-up: dose 0.0625 mg/kg.
For assay [16], the system named is Trypanosoma evansi. As to the kind of experiment: Antimicrobial activity against Trypanosoma evansi STIB 806K infected in NMRI mouse assessed as complete cure from microbial infection at 0.125 mg/kg, ip administered 3 to 6 days after infection for 4 consecutive days. Type of assay: functional, organism-based. Set-up: dose 0.125 mg/kg.
The subject of assay [17] is Trypanosoma evansi. The experiment in a line: Antimicrobial activity against Trypanosoma evansi STIB 806K infected in NMRI mouse assessed as host survival days at 0.03125 mg/kg, ip administered 3 to 6 days after infection for 4 consecutive days. It counts as functional. The note with it: route intraperitoneal.

`COc1cc(C(=N)N)ccc1-c1ccnc(-c2ccc(C(=N)N)cc2)n1`: the Survival with Trypanosoma evansi [1] turned out to be 15 days. Also, the result in the assay on Trypanosoma evansi [2] was inactive.

Consider `c1cc(-c2cc3cc(C4=NCCN4)ccc3[nH]2)ccc1C1=NCCN1`, for which the Survival with Trypanosoma evansi [3] was 39 days.

As to `CNC(=N)c1ccc(OCCCCCOc2ccc(C(=N)NC)cc2)cc1`, in the assay with Trypanosoma evansi [3], the Survival worked out at 29 days. Besides, the outcome in the assay on Trypanosoma evansi [4] was inactive.

As to `Cc1cc(=N)c2ccc(Nc3cc(C)[n+](C)c(N)n3)cc2n1C.O=S(=O)([O-])O` [QUINAPYRAMINE SULFATE], in the assay with Trypanosoma evansi [5], the outcome was Active. Also, the values for the Survival in the assay on Trypanosoma evansi [6], in the assay on Trypanosoma evansi [1] and in the assay with Trypanosoma evansi [7] were 41 days, 57 days and 60 days, respectively.

As to `N=C(N)c1ccc(-c2cccc(-c3ccc(C(=N)N)cc3)n2)cc1`, in the assay on Trypanosoma evansi [1], the Survival was 16 days. Further, in the assay with Trypanosoma evansi [2], the result was inactive.

As to `N=C(N)c1ccc(-c2ccc(-c3ccc(C(=N)N)cc3)o2)cc1` [FURAMIDINE], the result with Trypanosoma evansi [8] and in the assay on Trypanosoma evansi [12] was Active. Also, the Survival with Trypanosoma evansi [9] turned out to be 60 days; with Trypanosoma evansi [6], 60 days; with Trypanosoma evansi [10] it was 55 days; in the assay on Trypanosoma evansi [11], 29 days.

For the compound `N=C(N)c1ccc(-c2ccc(-c3cn4cc(C(=N)N)ccc4n3)cc2)cc1`, the results for the Survival in the assay on Trypanosoma evansi [3] and with Trypanosoma evansi [13] were 35 days and 12 days, respectively. Moreover, the result with Trypanosoma evansi [14] was inactive.

On to `CNC(=N)Nc1ccc(-c2ccc(-c3ccc(NC(=N)NC)cc3)cc2)cc1`, for which, in the assay with Trypanosoma evansi [1], the Survival stood at 13 days. For the same compound, the outcome in the assay on Trypanosoma evansi [2] was inactive.

For `N=C(N)c1ccc(-c2ccc(-c3nc4cc(C(=N)N)ccc4o3)o2)cc1`, the Survival in the assay on Trypanosoma evansi [3] came out at 23 days. In the assay with Trypanosoma evansi [4], the outcome was inactive.

Regarding `COc1cc(-c2ccc(C(=N)N)cc2)c(OC)cc1-c1ccc(C(=N)N)cc1`, in the assay with Trypanosoma evansi [1], the Survival was found to be 7 days. Moreover, in the assay on Trypanosoma evansi [2], the outcome was inactive.

Turning to `N=C(N)c1ccc(-c2ccc(-c3ccc(C(=N)N)o3)cn2)cc1`, the Survival in the assay on Trypanosoma evansi [3] turned out to be 28 days.

For `Cc1cc(C(=N)N)cn2cc(-c3ccc(-c4ccc(C(=N)N)cc4)o3)nc12`, in the assay on Trypanosoma evansi [3], the Survival was found to be 13 days. In the assay on Trypanosoma evansi [4], the outcome was inactive.

`Cc1cc(C(=N)N)ccc1-c1ccc(-c2nc3ccc(C(=N)N)cc3[nH]2)o1`: the Survival with Trypanosoma evansi [1] came out at 16 days. Also, the result with Trypanosoma evansi [2] was inactive.

`Cc1ccc(C(=O)Nc2ccc(S(=O)(=O)O)c3cc(S(=O)(=O)O)cc(S(=O)(=O)O)c23)cc1NC(=O)c1cccc(NC(=O)Nc2cccc(C(=O)Nc3cc(C(=O)Nc4ccc(S(=O)(=O)O)c5cc(S(=O)(=O)O)cc(S(=O)(=O)O)c45)ccc3C)c2)c1` [SURAMIN]: in the assay with Trypanosoma evansi [8], the outcome was inactive. Besides, the result in the assay on Trypanosoma evansi [5] was Active. The Survival turned out to be 11 days in the assay on Trypanosoma evansi [6], 51 days in the assay on Trypanosoma evansi [1] and 60 days with Trypanosoma evansi [7].

Turning to `N=C(N)c1ccc(-c2ccc(-c3ccc(C(=N)N)nc3)o2)cc1`, the Survival was 60 days with Trypanosoma evansi [3], 54 days in the assay with Trypanosoma evansi [6], 46 days in the assay with Trypanosoma evansi [10] and 60 days with Trypanosoma evansi [1]. The result with Trypanosoma evansi [2] and in the assay with Trypanosoma evansi [4] was Active.

With `Cn1c(-c2ccc(C(=N)N)nc2)ccc1-c1ccc(C(=N)N)nc1`, the Survival in the assay on Trypanosoma evansi [1] came out at 34 days.

`N=C(N)c1ccc(-c2cc(-c3ccc(C(=N)N)cc3)on2)cc1`: the figures for the Survival in the assay with Trypanosoma evansi [3] and in the assay on Trypanosoma evansi [1] were 60 days and 29 days, respectively. The result in the assay with Trypanosoma evansi [4] was Active.

Consider `N=C(N)c1ccc(-c2cccc(-c3nc4ccc(C(=N)N)cc4[nH]3)c2)nc1`, for which, in the assay with Trypanosoma evansi [3], the Survival was found to be 18 days. In addition, the result in the assay on Trypanosoma evansi [4] was inactive.

`N=C(N)c1ccc(-c2ccc(-c3ccc(C(=N)N)cc3O)o2)cc1`: the Survival in the assay with Trypanosoma evansi [3] stood at 60 days; in the assay with Trypanosoma evansi [6] it was 38 days; in the assay with Trypanosoma evansi [10], 32 days; in the assay with Trypanosoma evansi [1], 60 days. Besides, the outcome with Trypanosoma evansi [2] and in the assay with Trypanosoma evansi [4] was Active.

Regarding `Cc1cc(C2=NCCN2)ccc1-c1cc2cc(C3=NCCN3)ccc2[nH]1`, the Survival with Trypanosoma evansi [1] came to 7 days. In addition, in the assay on Trypanosoma evansi [2], the outcome was inactive.

As to `N=C(N)c1ccc2nc(-c3ccc(-c4ccc(C(=N)N)c(F)c4)o3)[nH]c2c1`, in the assay on Trypanosoma evansi [1], the Survival came out at 27 days. In the assay with Trypanosoma evansi [2], the result was inactive.

Regarding `N=C(N)c1ccc(/N=N/Nc2ccc(C(=N)N)cc2)cc1` [DIMINAZENE], the Survival in the assay on Trypanosoma evansi [3] was 60 days; in the assay on Trypanosoma evansi [7] it was 44 days; in the assay with Trypanosoma evansi [13], 9 days. Moreover, the result with Trypanosoma evansi [14] was inactive. Moreover, the outcome in the assay with Trypanosoma evansi [4] was Active.

Take `N=C(N)c1ccc(-c2ccc(-c3ccc4ccc(C(=N)N)cc4c3)o2)cc1`: in the assay with Trypanosoma evansi [1], the Survival stood at 15 days. Moreover, in the assay with Trypanosoma evansi [2], the result was inactive.

`N=C(N)c1ccc(-c2ccc(-c3ccc(C(=N)N)cn3)o2)cc1`: the outcome in the assay on Trypanosoma evansi [8] and in the assay on Trypanosoma evansi [2] was Active. Further, the Survival in the assay on Trypanosoma evansi [6] turned out to be 60 days; in the assay with Trypanosoma evansi [10], 50 days; in the assay on Trypanosoma evansi [1], 60 days.

Regarding `N=C(N)c1ccc(-c2coc(-c3ccc(C(=N)N)cc3)c2)cc1`, the figures for the Survival with Trypanosoma evansi [3], in the assay with Trypanosoma evansi [6] and in the assay with Trypanosoma evansi [1] were 60 days, 41 days and 57 days, respectively. In the assay on Trypanosoma evansi [4], the result was Active.

Turning to `N=C(N)c1ccc(-c2ccc(-c3ccc(C(=N)N)nc3)o2)nc1`, the Survival with Trypanosoma evansi [3] stood at 60 days; in the assay with Trypanosoma evansi [6], 46 days; in the assay with Trypanosoma evansi [10] it was 23 days; with Trypanosoma evansi [1], 60 days. In addition, the outcome in the assay with Trypanosoma evansi [2] and with Trypanosoma evansi [4] was Active.

Regarding `COc1cc(C(=N)N)ccc1OCCCOc1ccc(C(=N)N)cc1OC`, the Survival in the assay with Trypanosoma evansi [3] is 29 days.

Turning to `N=C(N)c1ccc(-c2ccc(-c3ccc(C(=N)N)cc3F)o2)c(F)c1`, in the assay with Trypanosoma evansi [1], the Survival amounted to 43 days.

For the compound `Cn1c(-c2ccc(C(=N)N)cc2)ccc1-c1ccc(C(=N)N)cc1`, in the assay on Trypanosoma evansi [3], the Survival worked out at 49 days.

In the case of `N=C(N)c1cccc(-c2ccc(-c3nc4cc(C(=N)N)ccc4[nH]3)cc2)c1`, in the assay on Trypanosoma evansi [1], the Survival turned out to be 12 days. For the same compound, the outcome with Trypanosoma evansi [2] was inactive.

Turning to `Cc1cc(C(=N)N)ccc1-c1cc2cc(C(=N)N)ccc2[nH]1`, the Survival with Trypanosoma evansi [3] was 60 days; with Trypanosoma evansi [6] it was 51 days; with Trypanosoma evansi [10], 29 days; in the assay on Trypanosoma evansi [1] it was 60 days. Besides, the result in the assay on Trypanosoma evansi [2] and in the assay on Trypanosoma evansi [4] was Active.

Regarding `N=C(N)c1ccc(-c2csc(-c3ccc(C(=N)N)cc3)n2)cc1`, the Survival with Trypanosoma evansi [3] is 53 days.

With `NCCS[As](SCCN)c1ccc(Nc2nc(N)nc(N)n2)cc1`, the Survival in the assay with Trypanosoma evansi [10] stood at 60 days; in the assay with Trypanosoma evansi [11] it was 60 days; with Trypanosoma evansi [17] it was 37 days. In addition, the result with Trypanosoma evansi [15] and in the assay on Trypanosoma evansi [16] was Active.
